The test has as its target T1, glucocorticoid receptor (A549 human lung epithelial cell extract) (Homo sapiens, UniProt P04150).
T1 construct: host or cells: A549 human lung epithelial cells
T1 sequence (P04150 1-777): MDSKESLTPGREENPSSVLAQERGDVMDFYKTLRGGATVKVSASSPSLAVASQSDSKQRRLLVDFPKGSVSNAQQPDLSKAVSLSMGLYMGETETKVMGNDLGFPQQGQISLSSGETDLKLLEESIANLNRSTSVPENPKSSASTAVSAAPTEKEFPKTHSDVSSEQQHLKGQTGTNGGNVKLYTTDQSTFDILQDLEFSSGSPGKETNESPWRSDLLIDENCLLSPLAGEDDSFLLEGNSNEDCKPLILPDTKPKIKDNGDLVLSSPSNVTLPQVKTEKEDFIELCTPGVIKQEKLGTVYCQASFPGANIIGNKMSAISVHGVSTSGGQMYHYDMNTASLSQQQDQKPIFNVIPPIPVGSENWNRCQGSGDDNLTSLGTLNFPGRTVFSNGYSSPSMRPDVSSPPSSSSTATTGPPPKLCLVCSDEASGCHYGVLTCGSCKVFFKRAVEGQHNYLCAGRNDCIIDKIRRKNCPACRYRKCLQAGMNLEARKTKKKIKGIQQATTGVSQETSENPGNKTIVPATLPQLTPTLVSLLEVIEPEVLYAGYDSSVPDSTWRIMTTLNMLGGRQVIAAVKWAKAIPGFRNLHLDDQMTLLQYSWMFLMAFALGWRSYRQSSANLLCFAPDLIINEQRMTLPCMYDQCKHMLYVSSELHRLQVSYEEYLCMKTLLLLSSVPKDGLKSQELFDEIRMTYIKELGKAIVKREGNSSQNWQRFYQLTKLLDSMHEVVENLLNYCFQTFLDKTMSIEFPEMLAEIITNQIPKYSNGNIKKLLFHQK
Put plainly: Glucocorticoid Receptor Binding Assay (Method 1). The settings on record: [3H]-dexamethasone, racemic mixture unless otherwise indicated, read-out: GR Ki (nM) Method 1. On the procedure: A549 human lung epithelial cells (ATCC) are grown at a scale where gram quantity cell pellets are obtained. Harvested cell pellets are washed twice in cold phosphate buffered saline, centrifuged, and resuspended in cold assay binding buffer. The assay binding buffer consists of 10% glycerol, 50 mM Tris-HCl (pH7.2), 75 mM sodium chloride, 1.5 mM magnesium chloride, 1.5 mM EDTA, and 10 mM sodium molybdate. Cell suspensions were lysed via sonication, centrifuged, and the “extract” supernatant is snap frozen and stored at −80 C until needed.
GR binding assays are performed in a final volume of 140 ul containing 50-200 ug of A549 cell extract and 1.86 nM [^3H]-dexamethasone (Amersham) plus varying concentrations of test compound or vehicle. Briefly, assays are prepared at RT in 96-well Fisher 3356 plates, each well containing 100 ul of A549 cell extract, 20 ul of [^3H]-dexamethasone, and 20 ul of test compound/vehicle. Incubations are carried out at 4 degrees Celsius for 16 hours. After incubation, 70 ul of 3× dextran-coated charcoal solution is added to each reaction, mixed, and incubated for 8 minutes at RT. 3×-dextran-coated charcoal solution consists of 250 ml assay binding buffer, 3.75 g Norit A charcoal (Sigma), and 1.25 g dextran T-70 (Amersham). Charcoal/unbound radioligand complexes are removed by centrifugation of the plate and 140 ul of supernatant from each well is transferred to another 96 well Optiplate (Packard Instruments). 200 ul of Microscint-20 scinillant (Packard Instruments) is added to each well and amount of receptor bound radioligand is determined using Packard Instruments TopCount instrument.
IC50 values, defined as the concentration of test compound required to decrease [^3H]-dexamethasone binding by 50%, are then determined. Ki values for each respective test compound can then be calculated by application of the Cheng-Prusoff equation as described in Cheng et al., Relationship Between The Inhibition Constant (Ki) and The Concentration of Inhibitor Which Causes 50% Inhibition (IC50) of an Enzymatic Reaction, Biochem. Pharmacol., 22: 3099-31088; (1973).

Broadly, the Ki is a measure of affinity in units of concentration, obtained from inhibition or displacement. `CCC1(c2c[nH]c3c(NS(C)(=O)=O)cccc23)CCCc2cc(F)ccc21` (single isomer, unassigned) [Example 29A, N-[3-(1-Ethyl-6-fluoro-1,2,3,4-tetrahydro-naphthalen-1-yl)-1H-indol-7-yl]-methanesulfonamide]: the Ki was at most 500 nM.
On to `CCC1(c2c[nH]c3c(NS(C)(=O)=O)cccc23)CCCc2cc(F)ccc21` (single isomer, unassigned) [Example 29B, N-[3-(1-Ethyl-6-fluoro-1,2,3,4-tetrahydro-naphthalen-1-yl)-1H-indol-7-yl]-methanesulfonamide], for which the Ki was at most 500 nM.
The figure for `CC1(c2c[nH]c3c(NS(C)(=O)=O)cccc23)CCc2ccccc21` (centres unmarked) [Example 20, N-[3-(1-Methyl-indan-1-yl)-1H-indol-7-yl]-methanesulfonamide] is at most 500 nM; for `CC1(c2c[nH]c3c(NS(C)(=O)=O)cccc23)CCc2cc(-n3cccn3)ccc21` (centres unmarked) [Example 24, N-[3-(1-Methyl-5-pyrazol-1-yl-indan-1-yl)-1H-indol-7-yl]-methanesulfonamide] it is at most 500 nM; for `CS(=O)(=O)Nc1cccc2c(C3CCCc4ccccc43)c[nH]c12` (centres unmarked) [Example 25, N-[3-(1,2,3,4-Tetrahydro-naphthalen-1-yl)-1H-indol-7-yl]-methanesulfonamide] it is at most 500 nM.
`CC1(c2c[nH]c3c(NS(C)(=O)=O)cccc23)CCCc2ccccc21` (centres unmarked) [Example 26, N-[3-(1-Methyl-1,2,3,4-tetrahydro-naphthalen-1-yl)-1H-indol-7-yl]-methanesulfonamide]: the Ki was at most 500 nM.
Consider `CCC1(c2c[nH]c3c(NS(C)(=O)=O)cccc23)CCCc2ccccc21` (centres unmarked) [Example 27, N-[3-(1-Ethyl-1,2,3,4-tetrahydro-naphthalen-1-yl)-1H-indol-7-yl]-methanesulfonamide], for which the Ki was at most 500 nM.
As for `CC1(c2c[nH]c3c(NS(C)(=O)=O)cccc23)CCOc2ccccc21` (centres unmarked) [Example 32, N-[3-(4-Methyl-chroman-4-yl)-1H-indol-7-yl]-methanesulfonamide], the figure is at most 500 nM; as for `CC1(c2c[nH]c3c(NS(C)(=O)=O)cccc23)CCOc2ccc(F)cc21` (centres unmarked) [Example 33, N-[3-(6-Fluoro-4-methyl-chroman-4-yl)-1H-indol-7-yl]-methanesulfonamide], at most 500 nM; as for `CC1(c2c[nH]c3c(NS(C)(=O)=O)cccc23)CCSc2ccccc21` (centres unmarked) [Example 37, N-[3-(4-Methyl-thiochroman-4-yl)-1-indol-7-yl]-methanesulfonamide], at most 500 nM.
With `CC1(c2c[nH]c3c(NS(C)(=O)=O)cccc23)CCCCc2ccccc21` (centres unmarked) [Example 38, N-[3-(5-Methyl-6,7,8,9-tetrahydro-5H-benzocyclohepten-5-yl)-1H-indol-7-yl]-methanesulfonamide], the Ki was at most 500 nM.

The values above are taken from patent US20070185161A1, “Bicyclic substituted indole-derivative steroid hormone nuclear receptor modulators” (priority 2004, published 2007).
